Patent publication US20230348454A1, “COMPOUNDS AS MODULATORS OF BIS-PHOSPHOGLYCERATE MUTASE FOR THE TREATMENT OF SICKLE CELL DISEASE” (Genzyme Corporation, priority 2020, published 2023)

Experiments:
[1] = target: T1, human Bisphosphoglycerate mutase (hBPGM) (Homo sapiens, UniProt P07738); test: BPGM phosphatase assay; assay type: biochemical; details: Table 6; read-out: huBPGM: phosphatase Enzyme EC50
T1 sequence (P07738 1-259): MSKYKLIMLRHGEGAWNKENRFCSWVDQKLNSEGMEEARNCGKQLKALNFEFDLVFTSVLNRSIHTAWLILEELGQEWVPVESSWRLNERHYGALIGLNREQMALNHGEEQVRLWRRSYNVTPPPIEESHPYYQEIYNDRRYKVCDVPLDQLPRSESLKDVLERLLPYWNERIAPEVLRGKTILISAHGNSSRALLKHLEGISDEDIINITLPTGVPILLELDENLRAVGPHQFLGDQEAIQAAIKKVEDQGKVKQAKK
Experimental: The following materials were used in this assay: Tris buffer (50 mM Tris, 0.01% Tween 20, pH 7.4); cyclohexylammonium salt of 2,3-BPG (stock solution of 500 mM in ultapure distilled water; human Bisphosphoglycerate mutase (hBPGM; stock solution of 110 μM in Standard Buffer); 3-Phosphoglyceric acid (3-PG; stock solution of 100 mM in ultrapure distilled water); 384-Well Polystyrene Plates (Fisherbrand™, Catalog No.: 12-566-625); BIOMOL GREEN REAGENT (Enzo life sciences, BML-AK111-0250); and 1 mM DMSO stock of exemplary compounds.
A 3-PG enzyme mix solution (final enzyme concentration 62.5 nM, 3-PG concentration at 50 µM, 14.5 uL) was added to onto a 384-well clear plate. Solutions of the test compounds were then added to the plate and the DMSO content was normalized across the plate. The plate was incubated at RT for 15 min. Next, the substrate 2,3-BPG (5 μL) was added to all the wells, and the plate was sealed and incubated for 24 hr at RT. After incubation, BIOMOL green dye (40 μL) was added to all the wells, the plate was shaken to mix, and the plate was incubated at RT for 20-30 min. Absorbance measurements were recorded at 620 nm.

hBPGM = target: T2, hBPGM (Homo sapiens, UniProt P07738); test: BPGM synthase assay; assay type: biochemical; details: Table 6; read-out: huBPGM: synthase Enzyme IC50
T2 sequence (P07738 1-259): T1 sequence (P07738 1-259)
Method in brief: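 The enzyme solution held 5 nM BPGM with 0.4 U/mL coupling GAPDH in Tris pH 7.4, 3.23 mM KH2PO4, 1 mM DTT, and compounds were pre-incubated 30 min at RT. Substrate solution (2 mM NAD, 20 μM 3PG, 800 μM GAP) reacted 60 min before a koningic acid quench. NADH fluorescence (360/460) and diaphorase/resazurin-derived resorufin (544/590) were read.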

SMILES	EC50 [1] [nM]	IC50 (hBPGM) [nM]
Cc1nc(COCC(=O)N(C)C)sc1-c1cccc(-c2cc(F)c3nn[nH]c3c2)n1 [Example 163]	260	170
Cc1nc(CNC(=O)c2cccnn2)sc1-c1cccc(-c2cc(F)c(O)c(F)c2F)n1 [Example 164]	550	680
COC(=O)NCc1nc(C)c(-c2csc(-c3ccc4[nH]nnc4c3F)n2)s1 [Example 166]	170	110
Cc1nc(COc2ncccn2)sc1-c1cccc(-c2cc(F)c(O)c(F)c2F)n1 [Example 172]	240	280
COC(=O)NCc1nc(C)c(-c2csc(-c3ccc(O)c(C#N)c3F)n2)s1 [Example 173]	> 25000	1500
Cc1nc(CNc2ncccn2)sc1-c1csc(-c2cc(F)c3[nH]nnc3c2)n1 [Example 175]	30	79
Cc1nc(COc2ccccn2)sc1-c1csc(-c2cc3nn[nH]c3c(F)c2F)n1 [Example 176]	20	3400
Cc1nc(COc2ncccn2)sc1-c1cccc(-c2cc(F)c3[nH]nnc3c2)c1 [Example 177]	250	440
Cc1nc(CNC(=O)C(C)(C)C)sc1-c1csc(-c2cc3nn[nH]c3cc2F)n1 [Example 181]	790	300
Cc1nc(CNC(=O)c2cccnn2)sc1-c1csc(-c2cc(F)c(O)c(F)c2F)n1 [Example 186]	350	240
COC(=O)NCc1nc(C)c(-c2csc(-c3cc(F)c(O)c(F)c3F)n2)s1 [Example 187]	480	300
Cc1nc(CNC(=O)c2cccnn2)sc1-c1csc(-c2cc(F)c(O)c(F)c2F)n1 [Example 188]	140	84
COC(=O)NCc1nc(C)c(-c2csc(-c3cc(F)c(O)c(F)c3)n2)s1 [Example 191]	1600	1100
Cc1nc(CNC(=O)C(C)(C)C)sc1-c1csc(-c2cc(F)c(O)c(F)c2)n1 [Example 196]	4900	1600
Cc1nc(CNC(=O)c2cccnn2)sc1-c1csc(-c2cc(F)c(O)c(F)c2)n1 [Example 201]	180	410

More lines, in order of falling EC50 [1], values ahead:

EC50 [1] [nM]	IC50 (hBPGM) [nM]	SMILES
3300	4200	COC(=O)NCc1nc(C)c(-c2csc(-c3ccc(O)c(F)c3F)n2)s1 [Example 190]
1900	810	COC(=O)NCc1nc(C)c(-c2cccc(-c3cc(F)c(O)c(F)c3F)n2)s1 [Example 171]
1700	1700	COC(=O)NCc1nc(C)c(-c2csc(-c3cc(F)c(O)cc3F)n2)s1 [Example 178]
880	1100	Cc1nc(COCC(=O)N(C)C)sc1-c1cccc(-c2cc(F)c(O)c(F)c2F)n1 [Example 170]
520	460	Cc1nc(COCC(=O)N(C)C)sc1-c1csc(-c2cc(F)c(O)c(F)c2F)n1 [Example 160]
490	1000	Cc1nc(COc2ccccn2)sc1-c1csc(-c2cc(F)c(O)c(F)c2)n1 [Example 192]
400	3100	Cc1nc(CNC(=O)C(C)(C)C)sc1-c1csc(-c2cc(F)c(O)c(F)c2)c1 [Example 197]
370	820	Cc1nc(CNC(=O)c2cccnn2)sc1-c1csc(-c2cc(F)c(O)c(F)c2)c1 [Example 194]
330	560	Cc1nc(COC(=O)N(C)C)sc1-c1cccc(-c2cc(F)c(O)c(F)c2F)n1 [Example 169]
310	980	COC(=O)NCc1nc(C)c(-c2csc(-c3cc(O)c(C#N)cc3F)c2)s1 [Example 189]
130	220	Cc1nc(CNc2ncccn2)sc1-c1cccc(-c2cc(F)c(O)c(F)c2F)n1 [Example 168]
110	92	Cc1nc(CNc2ncccn2)sc1-c1csc(-c2cc(F)c(O)c(F)c2F)n1 [Example 165]
75	130	Cc1nc(COC(=O)N(C)C)sc1-c1cccc(-c2cc(F)c3nn[nH]c3c2)n1 [Example 167]
